This passage reports IC50 and melting point results from patent US20040138160A1, “Preventive/therapeutic method for cancer” (priority 2001, published 2004).

The test system of one data set is human breast cancer cell line BT-474. As to the kind of experiment: Inhibitory action on breast cancer cell line BT-474 proliferation in vitro (SRB). The format is cell-based. As to conditions: heregulin 0.04 μg/ml, cultured 5 days, read-out: Inhibition of cell proliferation BT-474 (IC50:μM). The protocol: Cell suspension of human breast cancer cell line BT-474 (100 μl) suspended at 1,000 cells/100 μl), was placed in a 96-well microwell plate and cultured at 37° C. in a 5% carbon dioxide gas incubator. On the following day, 100 μl of a solution of each test compound, previously diluted 2-fold with a heregulin solution prepared to a final concentration of 0.04 μg/ml, was added, and the cells were cultured for 5 days. After the culture medium containing the test compound was removed, the cells were washed and fixed with 5% trichloroacetic acid, after which a 0.4% (w/v) SRB solution (dissolved in 1% acetic acid) was added to fix and stain the cells (Skehan et al., Journal of the National Cancer Institute, Vol. 82, pp. 1107-1112, 1990). After the pigment solution was removed and the plate was washed with a 1% acetic acid solution, 100 μl of an extractant (10 mM Tris buffer solution) was added to extract and dissolve the pigment; absorbance was measured at an absorption wavelength of 550 nm to quantify the amount of cells as protein content. Taking as 100% the absorbance for the control group, which received no test compound solution, the ratio of the absorbance for each treatment group was determined, and the compound concentration required to achieve 50% suppression of the residual cell content relative to the control (IC50 value) was calculated.
Regarding `Cc1cccc(/C=C/c2nc(COc3ccc(CCCCc4c[nH]c(CC(O)CO)n4)cc3)co2)c1` (stereo not drawn) [Compound B22, 3-(4-{4-[4-({2-[(E)-2-(3-methylphenyl)ethenyl]-1,3-oxazol-4-yl}methoxy)phenyl]butyl}-1H-imidazol-2-yl)-1,2-propanediol], the IC50 was less than 0.05 µM.

A further data set deals with HER2 (Homo sapiens, UniProt P04626). As to the kind of experiment: Suppression of receptor tyrosine-phosphorylation in human breast cancer cells (intracellular HER2 phosphorylation, MCF-7, heregulin stimulation). The format is cell-based. As to conditions: MCF-7 cells; test compound 2 hours, then heregulin 0.8 μg/ml 5 minutes; read-out: Intracellular HER2 phosphorylation inhibition MCF-7 (IC50:μM). The arrangement: endogenous in cells; host or cells: MCF-7.
HER2, sequence (P04626 23-1255): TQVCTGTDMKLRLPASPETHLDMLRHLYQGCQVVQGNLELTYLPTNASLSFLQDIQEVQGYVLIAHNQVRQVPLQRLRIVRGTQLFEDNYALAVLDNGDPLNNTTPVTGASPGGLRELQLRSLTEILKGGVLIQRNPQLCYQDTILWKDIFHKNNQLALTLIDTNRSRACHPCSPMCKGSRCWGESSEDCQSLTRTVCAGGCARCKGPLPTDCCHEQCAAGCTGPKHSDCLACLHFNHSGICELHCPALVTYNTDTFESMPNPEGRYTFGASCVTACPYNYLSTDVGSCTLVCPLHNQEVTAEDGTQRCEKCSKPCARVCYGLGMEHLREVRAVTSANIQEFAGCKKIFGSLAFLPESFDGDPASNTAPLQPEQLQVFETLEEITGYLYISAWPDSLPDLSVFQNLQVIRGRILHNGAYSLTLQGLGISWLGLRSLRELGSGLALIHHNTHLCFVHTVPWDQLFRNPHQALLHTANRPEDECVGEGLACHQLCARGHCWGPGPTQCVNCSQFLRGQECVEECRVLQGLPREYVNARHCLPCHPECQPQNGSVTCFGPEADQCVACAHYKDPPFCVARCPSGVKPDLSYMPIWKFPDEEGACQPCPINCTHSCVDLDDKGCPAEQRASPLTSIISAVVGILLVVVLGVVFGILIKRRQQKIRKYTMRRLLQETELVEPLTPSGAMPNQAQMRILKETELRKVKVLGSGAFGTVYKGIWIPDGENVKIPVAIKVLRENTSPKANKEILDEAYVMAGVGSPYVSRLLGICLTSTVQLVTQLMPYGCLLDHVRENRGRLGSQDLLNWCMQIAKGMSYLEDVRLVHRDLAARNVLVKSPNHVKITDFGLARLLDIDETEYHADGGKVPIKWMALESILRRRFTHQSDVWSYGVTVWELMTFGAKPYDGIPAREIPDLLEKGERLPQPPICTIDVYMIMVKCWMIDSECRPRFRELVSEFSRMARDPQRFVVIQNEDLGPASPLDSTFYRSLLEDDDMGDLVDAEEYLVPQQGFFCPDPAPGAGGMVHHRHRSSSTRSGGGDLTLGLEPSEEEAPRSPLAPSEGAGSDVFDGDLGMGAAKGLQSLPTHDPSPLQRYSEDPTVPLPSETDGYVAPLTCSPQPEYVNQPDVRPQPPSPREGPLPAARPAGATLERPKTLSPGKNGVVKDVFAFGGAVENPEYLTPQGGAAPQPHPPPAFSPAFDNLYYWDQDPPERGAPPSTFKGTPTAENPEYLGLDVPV
Procedure: Cell suspension of Human breast cancer cell line MCF-7 (500 μl), suspended at 300,000 cells/0.5 mL, was placed in a 24-well plate and cultured at 37° C. in a 5% carbon dioxide gas incubator. On the following day, 250 μl of a solution of 4-fold serially diluted test compound was added. After 2 hours, 250 μl of a heregulin solution, prepared to a final concentration of 0.8 μg/ml, was added. After 5 minutes, a buffer solution for lysis of extract solution was added to stop the reaction and to extract and yield a cell-lysate protein. After this cell-lysate protein was subjected to SDS-polyacrylamide gel electrophoresis to separate the protein, the protein in the gel was blotted onto a nylon filter. This filter was reacted with an anti-phosphotyrosine specific antibody; the portion containing phosphotyrosine on the filter was luminated using the ECL method to photosensitize an X-ray film. The amount of the film photosensitization was determined using an image analyzer.
For the molecule `Cc1cccc(/C=C/c2nc(COc3ccc(CCCCc4c[nH]c(CC(O)CO)n4)cc3)co2)c1` (stereo not drawn) [Compound B22, 3-(4-{4-[4-({2-[(E)-2-(3-methylphenyl)ethenyl]-1,3-oxazol-4-yl}methoxy)phenyl]butyl}-1H-imidazol-2-yl)-1,2-propanediol], the IC50 stood at 1.9 µM.

Tested on in a further data set: not given
Assay: not given
Settings: not given
In general, melting point refers to the temperature of the solid-liquid transition. Regarding `FC(F)(F)c1ccc(/C=C/c2nc(COc3cccc(CCCn4ccnn4)c3)co2)cc1` [Compound B6, 1-(3-{3-[(2-{(E)-2-[4-(trifluoromethyl)phenyl]ethenyl}-1,3-oxazol-4-yl)methoxy]phenyl}propyl)-1H-1,2,3-triazole], the melting point lay in the range of 115 to 116 °C.
Same read-out and setting: with `OCC(O)Cc1nccn1CCCCc1ccc(OCc2coc(/C=C/c3ccc(F)cc3)n2)cc1` (stereo not drawn) [Compound B23, 3-(1-{4-[4-({2-[(E)-2-(4-fluorophenyl)ethenyl]-1,3-oxazol-4-yl}methoxy)phenyl]butyl}-1H-imidazol-2-yl)-1,2-propanediol] the figure was 114 to 116 °C; with `FC(F)(F)c1ccc(/C=C/c2nc(COc3ccc(CCCn4ccnn4)cc3)co2)cc1` [Compound B5, 1-(3-{4-[(2-((E)-2-[4-(trifluoromethyl)phenyl]ethenyl)-1,3-oxazol-4-yl)methoxy]phenyl}propyl)-1H-1,2,3-triazole], 157 to 158 °C; with `Cc1cccc(/C=C/c2nc(COc3ccc(CCCCn4ccnc4CCO)cc3)co2)c1` [Compound B11, 2-[1-[4-[4-[[2-[(E)-2-(3-methylphenyl)ethenyl]-1,3-oxazol-4-yl]methoxy]phenyl]butyl]-1H-imidazol-2-yl]-1-ethanol], 109 to 111 °C.
On the same count and under the same terms, with `OCC(O)Cc1nccn1CCCc1cccc(OCc2coc(/C=C/c3ccc(F)cc3F)n2)c1` (stereo not drawn) [Compound B27, 3-(1-{3-[3-({2-[(E)-2-(2,4-difluorophenyl)ethenyl]-1,3-oxazol-4-yl}methoxy)phenyl]propyl}-1H-imidazol-2-yl)-1,2-propanediol] the figure was 92 to 94 °C.
Same read-out and setting: with `OCCc1nccn1CCCc1ccc(OCc2coc(/C=C/c3ccc(F)cc3F)n2)cc1` [Compound B20, 2-[1-[3-[4-[[2-[(E)-2-(2,4-difluorophenyl)ethenyl]-1,3-oxazol-4-yl]methoxy]phenyl]propyl]-1H-imidazol-2-yl]-1-ethanol] the figure was 94 to 96 °C.
Turning to `Cc1ccccc1/C=C/c1nc(COc2ccc(CCCCn3ccnc3CCO)cc2)co1` [Compound B12, 2-[1-[4-[4-[[2-[(E)-2-(2-methylphenyl)ethenyl]-1,3-oxazol-4-yl]methoxy]phenyl]butyl]-1H-imidazol-2-yl]-1-ethanol], the melting point is 91 to 93 °C.
Same read-out and setting: the figure for `OCCc1nccn1CCCCc1ccc(OCc2coc(/C=C/c3ccc(Cl)cc3)n2)cc1` [Compound B15, 2-[1-[4-[4-[[2-[(E)-2-(4-chlorophenyl)ethenyl]-1,3-oxazol-4-yl]methoxy]phenyl]butyl]-1H-imidazol-2-yl]-1-ethanol] is 127 to 128 °C; for `OCCc1nccn1CCCCc1ccc(OCc2coc(/C=C/c3ccc(Br)cc3)n2)cc1` [Compound B16, 2-[1-[4-[4-[[2-[(E)-2-(4-bromophenyl)ethenyl]-1,3-oxazol-4-yl]methoxy]phenyl]butyl]-1H-imidazol-2-yl]-1-ethanol] it is 149 to 150 °C.
The same measure, in the same setting: with `CCc1ccc(/C=C/c2nc(COc3ccc(CCCCn4ccnc4CCO)cc3)co2)cc1` [Compound B13, 2-[1-[4-[4-[[2-[(E)-2-(4-ethylphenyl)ethenyl]-1,3-oxazol-4-yl]methoxy]phenyl]butyl]-1H-imidazol-2-yl]-1-ethanol] the figure was 94 to 95 °C; with `OCCc1nccn1CCCCc1ccc(OCc2coc(/C=C/c3ccc(F)cc3F)n2)cc1` [Compound B19, 2-[1-[4-[4-[[2-[(E)-2-(2,4-difluorophenyl)ethenyl]-1,3-oxazol-4-yl]methoxy]phenyl]butyl]-1H-imidazol-2-yl]-1-ethanol], 93 to 95 °C.
`OCC(O)Cc1nccn1CCCCc1ccc(OCc2coc(/C=C/c3ccc(F)cc3F)n2)cc1` (stereo not drawn) [Compound B26, 3-(1-{4-[4-({2-[(E)-2-(2,4-difluorophenyl)ethenyl]-1,3-oxazol-4-yl}methoxy)phenyl]butyl}-1H-imidazol-2-yl)-1,2-propanediol] gave a melting point of 126 to 128 °C.
On the same count and under the same terms, with `OCCc1nccn1CCCCc1ccc(OCc2coc(/C=C/c3ccc(F)cc3)n2)cc1` [Compound B14, 2-(1-{4-[4-({2-[(E)-2-(4-fluorophenyl)ethenyl]-1,3-oxazol-4-yl}methoxy)phenyl]butyl)-1H-imidazol-2-yl)-1-ethanol] the figure was 130 to 132 °C; with `Fc1ccc(/C=C/c2nc(COc3ccc(CCCCn4ccnn4)cc3)co2)c(F)c1` [Compound B7, 1-{4-[4-({2-[(E)-2-(2,4-difluorophenyl)ethenyl]-1,3-oxazol-4-yl}methoxy)phenyl]butyl}-1H-1,2,3-triazole], 115 to 117 °C; with `Fc1ccc(/C=C/c2nc(COc3cccc(CCCn4ccnn4)c3)co2)c(F)c1` [Compound B8, 1-{3-[3-({2-[(E)-2-(2,4-difluorophenyl)ethenyl]-1,3-oxazol-4-yl}methoxy)phenyl]propyl}-1H-1,2,3-triazole], 89 to 90 °C.
Same read-out and setting: the figure for `Cc1ccc(/C=C/c2nc(COc3ccc(CCCCn4ccnc4CCO)cc3)co2)cc1` [Compound B10, 2-[1-[4-[4-[[2-[(E)-2-(4-methylphenyl)ethenyl]-1,3-oxazol-4-yl]methoxy]phenyl]butyl]-1H-imidazol-2-yl]-1-ethanol] is 108 to 109 °C.
On the same count and under the same terms, with `OCC(O)Cc1nccn1CCCCc1ccc(OCc2coc(/C=C/c3c(F)cccc3F)n2)cc1` (stereo not drawn) [Compound B28, 3-[1-[4-[4-[[2-[(E)-2-(2,6-difluorophenyl)ethenyl]-1,3-oxazol-4-yl]methoxy]phenyl]butyl]-1H-imidazol-2-yl]-1,2-propanediol] the figure was 123 to 125 °C.
`OCC(O)Cc1nccn1CCCc1cccc(OCc2coc(/C=C/c3ccc(C(F)(F)F)cc3)n2)c1` (stereo not drawn) [Compound B25, 3-[1-(3-{3-[(2-{(E)-2-[4-(trifluoromethyl)phenyl]ethenyl}-1,3-oxazol-4-yl)methoxy]phenyl}propyl)-1H-imidazol-2-yl]-1,2-propanediol] registered a melting point of 102 to 104 °C.
Same read-out and setting: the figure for `OCC(O)Cc1nccn1CCCCc1ccc(OCc2coc(/C=C/c3ccc(C(F)(F)F)cc3)n2)cc1` (stereo not drawn) [Compound B24, 3-[1-(4-(4-[(2-{(E)-2-[4-(trifluoromethyl)phenyl]ethenyl}-1,3-oxazol-4-yl)methoxy]phenyl]butyl)-1H-imidazol-2-yl]-1,2-propanediol] is 142 to 143 °C.
